In publication PMC9841532, “Exploring the Effect of Halogenation in a Series of Potent and Selective A2B Adenosine Receptor Antagonists” (Journal of Medicinal Chemistry, 2022):
Converted amounts (≈) assume the structure as drawn.

How the values were obtained:
[1] = target: T1, hA3AR (Homo sapiens, UniProt P0DMS8); conditions: prototype series, [3H]NECA, human HeLa cells ref 30, 31; cited from earlier work
T1 construct: expressed in transfected cells; host or cells: HeLa (HeLa-A3) cell membranes
T1 sequence (P0DMS8 1-318): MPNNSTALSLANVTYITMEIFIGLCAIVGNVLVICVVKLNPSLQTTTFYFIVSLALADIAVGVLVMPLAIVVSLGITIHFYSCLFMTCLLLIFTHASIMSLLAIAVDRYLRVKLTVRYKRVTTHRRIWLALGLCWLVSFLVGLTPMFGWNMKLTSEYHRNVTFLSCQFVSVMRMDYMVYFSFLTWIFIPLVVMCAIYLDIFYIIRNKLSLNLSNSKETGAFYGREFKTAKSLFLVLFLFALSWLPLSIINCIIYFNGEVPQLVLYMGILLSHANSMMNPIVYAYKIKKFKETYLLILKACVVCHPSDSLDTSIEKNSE

[2] = target: A2B; conditions: Figure 1, representative A2B antagonists ref 28-32; read-out: Ki; cited from earlier work
[3] = target: T2, hA1AR (Homo sapiens, UniProt P30542); conditions: prototype series, [3H]DPCPX, human CHO cells ref 30, 31; cited from earlier work
T2 sequence (P30542 1-326): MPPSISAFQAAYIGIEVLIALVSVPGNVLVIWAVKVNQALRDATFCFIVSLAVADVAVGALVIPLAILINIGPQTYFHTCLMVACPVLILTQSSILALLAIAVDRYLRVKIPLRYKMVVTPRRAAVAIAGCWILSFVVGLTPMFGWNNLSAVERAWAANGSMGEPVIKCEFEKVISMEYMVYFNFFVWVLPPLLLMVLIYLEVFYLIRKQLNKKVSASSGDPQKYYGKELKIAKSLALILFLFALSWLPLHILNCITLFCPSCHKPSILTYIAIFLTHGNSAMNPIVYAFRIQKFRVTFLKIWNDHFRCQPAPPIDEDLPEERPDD

[4] = target: T3, hA2AAR (Homo sapiens, UniProt P29274); conditions: prototype series, human HeLa cells ref 30, 31; cited from earlier work
T3 construct: expressed in transfected cells; host or cells: HeLa (HeLa-A2A) cell membranes
T3 sequence (P29274 whole entry): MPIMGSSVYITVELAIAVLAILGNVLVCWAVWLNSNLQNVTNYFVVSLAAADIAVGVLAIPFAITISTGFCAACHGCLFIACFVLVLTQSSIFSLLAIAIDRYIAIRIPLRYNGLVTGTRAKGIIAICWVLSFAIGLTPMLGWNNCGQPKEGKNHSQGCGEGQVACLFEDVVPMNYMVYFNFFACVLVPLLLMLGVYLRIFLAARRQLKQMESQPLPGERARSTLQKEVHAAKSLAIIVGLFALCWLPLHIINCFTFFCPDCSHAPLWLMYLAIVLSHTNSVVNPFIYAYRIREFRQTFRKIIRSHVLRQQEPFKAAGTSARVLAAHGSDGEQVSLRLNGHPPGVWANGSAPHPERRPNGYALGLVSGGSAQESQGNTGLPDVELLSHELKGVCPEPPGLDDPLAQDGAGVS

[5] = target: T4, hA2BAR (Homo sapiens, UniProt P29275); assay: Radioligand binding competition, [3H]DPCPX, membranes from HEK-293-A2B cells; parameters: Exp. dG: unit not given here; conditions: experimental binding free energy, Supplementary Table S3; unit not given (errors in kcal/mol)
T4 construct: host or cells: HEK-293 (HEK-293-A2B) cell membranes
T4 sequence (P29275 1-332): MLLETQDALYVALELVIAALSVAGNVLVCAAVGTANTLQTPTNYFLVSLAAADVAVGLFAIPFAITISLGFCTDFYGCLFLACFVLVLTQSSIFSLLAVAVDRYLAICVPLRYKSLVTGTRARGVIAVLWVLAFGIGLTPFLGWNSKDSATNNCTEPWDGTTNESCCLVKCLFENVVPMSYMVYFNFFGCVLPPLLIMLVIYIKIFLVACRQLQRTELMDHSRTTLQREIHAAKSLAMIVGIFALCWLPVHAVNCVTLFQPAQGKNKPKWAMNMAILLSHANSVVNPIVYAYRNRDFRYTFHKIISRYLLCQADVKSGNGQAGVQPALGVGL
Method in brief: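 Racemates, plus selected enantiomers after chiral resolution, were tested at 25 °C, with a 60 min incubation for one subtype and 30 min for others. Non-specific binding was defined with 10 μM or 100 μM R-PIA. Bound radioactivity was counted after washing and filtration.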

[6] = Solubility determination (nephelometry); type: physicochemical; conditions: 1:99 DMSO/PSB buffer, PBS pH 7, 37 °C
Protocol: The solubility of selected compounds was evaluated by following a previously described method.[31] A 10 mM stock solution of the compound was serially diluted in 100% DMSO, and 2.5 μL of this solution was added to a 384-well UV-transparent plate (Greiner) containing 47.5 μL of PBS (pH = 7). The plate was incubated at 37 °C for 4 h, and the light scattering was measured in a NEPHELOstar Plus reader (BMG LABTECH). The data was fitted to a segmented linear regression for measuring the compound solubility.

Structure (SMILES)	% at 1 μM hA3 (percentage displacement of specific binding) [1]	Ki [2]	% at 1 μM hA1 (percentage displacement of specific binding) [3]	% at 1 μM hA2A (percentage displacement of specific binding) [4]	Exp. dG [5]	solubility at 4 h [6]
CCOC(=O)C1=C(C)Nc2nc3ccccc3n2C1c1ccco1 (stereo not drawn) [I]	1%	12 nM	5%	14%	-10.8	
CC1=C(C(=O)OC(C)C)C(c2ccsc2)n2c(nc3ccccc32)N1 (stereo not drawn) [VIII]	21%		11%	3%	-10.27	
CCOC(=O)C1=C(C)Nc2nc3ccccc3n2C1c1ccsc1 (stereo not drawn) [VII]	2%		3%	10%	-10.26	
CC1=C(C(=O)OC(C)C)C(c2cccs2)n2c(nc3ccccc32)N1 (stereo not drawn) [VI]	3%		1%	17%	-8.767	
CCOC(=O)C1=C(C)Nc2nc3ccccc3n2C1c1cccs1 (stereo not drawn) [V]	1%		8%	16%		
CC(=O)[C@H]1CC[C@H]2[C@@H]3CCC4=CC(=O)CC[C@]4(C)[C@H]3CC[C@]12C [progesterone, reference compound]						6.7 µM (≈ 2.11 µg/mL)
